Reference: patent US20260217651A1 (priority 2022, published 2026)

System: SD rats
Experiment: animal or person
Assay type: in vivo, rat
Conditions: iv; for minimal effective dose: Rattus norvegicus, read-out: Minimal effective anesthetic dose(mg/kg); for Onset time / Righting Reflex Duration / Sedation Duration / Minimal effective anesthetic dose(mg/kg): rat, in vivo

Compound | minimal effective dose | Onset time | Righting Reflex Duration | Sedation Duration | Minimal effective anesthetic dose(mg/kg)
CCOC(=O)N(c1ccc(C)cc1)N1CCN(c2cc(C(C)C)c(O)c([C@H](C)C3CC3)c2)CC1 [Cpd-74] | 20 to 40 mg/kg | 0.50 min | 26.28 min | 69.23 min | 
COC(=O)CC1CCN(Cc2cc(C(C)C)c(O)c([C@H](C)C3CC3)c2)CC1 [Cpd-77] | < 5 mg/kg | 1.00 to 1.80 min | 0.67 to 1.95 min | 5.00 to 22.33 min | 
COC(=O)CN1CCN(Cc2cc(C(C)C)c(O)c([C@H](C)C3CC3)c2)CC1 [Cpd-78-1] | 5 to 10 mg/kg | 0.62 min | 2.73 min | 22.58 min | 
COC(=O)CC1CCN(c2cc(C(C)C)c(O)c([C@H](C)C3CC3)c2)CC1 [Cpd-80] | < 5 mg/kg | 0.17 to 0.97 min | 1.50 to 12.97 min | 10.17 to 28.53 min | 
CC(C)c1cc(N2CCC(CC(=O)OC(C)(C)C)CC2)cc([C@H](C)C2CC2)c1O [Cpd-81] | < 5 mg/kg | 0.18 to 0.75 min | 9.28 to 40.37 min | 27.22 to 57.86 min | 
COC(=O)CCC1CCN(c2cc(C(C)C)c(O)c([C@H](C)C3CC3)c2)CC1 [Cpd-82] | < 5 mg/kg | 0.17 to 0.52 min | 0.87 to 3.42 min | 3.67 to 13.02 min | 
COC(=O)C1CCN(c2cc(C(C)C)c(O)c([C@H](C)C3CC3)c2)CC1 [Cpd-84-1] | < 5 mg/kg | 0.43 to 0.77 min | 0.77 to 4.62 min | 5.72 to 10.28 min | 
COC(=O)C1CCN(c2cc(C(C)C)c(O)c([C@H](C)C3CC3)c2)CC1 [Cpd-84] |  | 0.30 to 0.75 min | 1.10 to 17.23 min | 18.08 to 35.02 min | A (key: A≤5 mg/kg; 5 mg/kg<B≤10 mg/kg; 10 mg/kg<C≤20 mg/kg; 20 mg/kg<D≤40 mg/k; E>40 mg/kg)
CC(C)c1cc(N2CCC(C(=O)OC(C)(C)C)CC2)cc([C@H](C)C2CC2)c1O [Cpd-85-1] | < 5 mg/kg | 0.40 to 1.33 min | 1.38 to 29.00 min | 20.97 to 44.48 min | 
CC(C)c1cc(N2CCC(C(=O)OC(C)(C)C)CC2)cc([C@H](C)C2CC2)c1O [Cpd-85] |  | 0.18 to 0.55 min | 1.28 to 4.92 min | 5.05 to 15.13 min | A (key: A≤5 mg/kg; 5 mg/kg<B≤10 mg/kg; 10 mg/kg<C≤20 mg/kg; 20 mg/kg<D≤40 mg/k; E>40 mg/kg)
COC(=O)CN1CC=C(c2cc(C(C)C)c(O)c([C@H](C)C3CC3)c2)CC1 [Cpd-86] | < 5 mg/kg | 0.17 to 0.20 min | 1.15 to 10.33 min | 16.40 to 19.62 min | 
COC(=O)CN1CCC(N(CC(=O)OC)c2cc(C(C)C)c(O)c([C@H](C)C3CC3)c2)CC1 [Cpd-87] | 10 to 20 mg/kg | 0.42 min | 1.85 min | 19.32 min | 
C=C[C@@H](C)c1cc(N2CCN(CC(=O)OC)CC2)cc(C(C)C)c1O [Cpd-89] | 10 to 20 mg/kg | 0.18 min | 0.88 min | 22.78 min | 
CCOC(=O)N(c1cccc(C#N)c1)N1CCN(c2cc(C(C)C)c(O)c(C(C)C)c2)CC1 [Cpd-95] | 20 to 40 mg/kg | 0.72 min | 13.75 min | 54.33 min | 
CCOC(=O)N(c1ccc(OC)c(F)c1)N1CCN(c2cc(C(C)C)c(O)c(C(C)C)c2)CC1 [Cpd-101] | 10 to 20 mg/kg | 0.70 to 0.73 min | 2.05 to 2.58 min | 38.73 to 57.17 min | 
CCOC(=O)N(c1ccc(OC)c(Br)c1)N1CCN(c2cc(C(C)C)c(O)c(C(C)C)c2)CC1 [Cpd-103] | 20 to 40 mg/kg | 0.15 min | 14.85 min | 107.67 min | 
CCOC(=O)N(c1cccc(Cl)c1)N1CCN(c2cc(C(C)C)c(O)c([C@@H](C)C3CC3)c2)CC1 [Cpd-106] | 10 to 20 mg/kg | 1.55 to 1.60 min | 3.35 to 24.10 min | 98.82 to 103.67 min | 
CCOC(=O)N(Cc1ccoc1)N1CCN(c2cc(C(C)C)c(O)c(C(C)C)c2)CC1 [Cpd-126] | 10 to 20 mg/kg | 0.42 min | 14.90 min | 21.85 min | 
CCOC(=O)N(Cc1cccc(Cl)c1)N1CCN(c2cc(C(C)C)c(O)c(C(C)C)c2)CC1 [Cpd-127] | 5 to 10 mg/kg | 0.55 min | 21.20 min | 71.18 min | 
